In patent publication US10875875B2, “Propionic acid derivatives and methods of use thereof” (Aviara Pharmaceuticals, Inc., priority 2017, dated 2020) one finds IC50 data, which are given here for 23 compounds.

Where two headings read alike, the source gives them in different places. Bounds are passed on as bounds.

What is called IC50 is the concentration needed to halve the response being measured.

In the assay the target is α4β1 (Homo sapiens, UniProt P05556+P13612). The assay is described as follows: α4β1 integrin inhibition, IC50. The class given is binding.
Sequence of α4β1 (P13612 34-1032): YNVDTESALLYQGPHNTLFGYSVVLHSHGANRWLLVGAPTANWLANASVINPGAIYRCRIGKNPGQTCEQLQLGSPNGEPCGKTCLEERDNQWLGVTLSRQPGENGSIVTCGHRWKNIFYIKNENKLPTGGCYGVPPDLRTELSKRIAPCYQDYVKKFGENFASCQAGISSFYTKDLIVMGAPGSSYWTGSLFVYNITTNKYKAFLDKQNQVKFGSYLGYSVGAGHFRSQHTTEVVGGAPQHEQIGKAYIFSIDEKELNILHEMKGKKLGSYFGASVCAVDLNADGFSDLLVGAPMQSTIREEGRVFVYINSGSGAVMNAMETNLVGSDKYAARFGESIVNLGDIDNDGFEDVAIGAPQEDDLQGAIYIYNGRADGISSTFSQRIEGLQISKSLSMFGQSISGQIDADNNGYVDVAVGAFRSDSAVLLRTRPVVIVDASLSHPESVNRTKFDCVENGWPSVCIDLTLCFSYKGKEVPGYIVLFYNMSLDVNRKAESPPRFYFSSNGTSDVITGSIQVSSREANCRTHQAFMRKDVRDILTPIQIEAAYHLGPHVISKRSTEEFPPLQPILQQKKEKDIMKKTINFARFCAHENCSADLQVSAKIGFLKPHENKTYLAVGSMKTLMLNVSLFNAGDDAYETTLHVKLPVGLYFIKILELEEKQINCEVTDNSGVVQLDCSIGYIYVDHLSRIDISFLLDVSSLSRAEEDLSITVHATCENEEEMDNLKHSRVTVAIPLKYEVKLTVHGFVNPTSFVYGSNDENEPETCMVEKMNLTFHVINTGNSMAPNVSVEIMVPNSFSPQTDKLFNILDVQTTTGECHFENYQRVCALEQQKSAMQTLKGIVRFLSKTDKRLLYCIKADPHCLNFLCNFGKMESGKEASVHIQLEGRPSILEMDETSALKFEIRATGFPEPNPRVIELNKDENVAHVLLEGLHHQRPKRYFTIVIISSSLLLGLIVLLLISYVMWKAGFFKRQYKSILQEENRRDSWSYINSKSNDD
Sequence of α4β1 (P05556 21-798): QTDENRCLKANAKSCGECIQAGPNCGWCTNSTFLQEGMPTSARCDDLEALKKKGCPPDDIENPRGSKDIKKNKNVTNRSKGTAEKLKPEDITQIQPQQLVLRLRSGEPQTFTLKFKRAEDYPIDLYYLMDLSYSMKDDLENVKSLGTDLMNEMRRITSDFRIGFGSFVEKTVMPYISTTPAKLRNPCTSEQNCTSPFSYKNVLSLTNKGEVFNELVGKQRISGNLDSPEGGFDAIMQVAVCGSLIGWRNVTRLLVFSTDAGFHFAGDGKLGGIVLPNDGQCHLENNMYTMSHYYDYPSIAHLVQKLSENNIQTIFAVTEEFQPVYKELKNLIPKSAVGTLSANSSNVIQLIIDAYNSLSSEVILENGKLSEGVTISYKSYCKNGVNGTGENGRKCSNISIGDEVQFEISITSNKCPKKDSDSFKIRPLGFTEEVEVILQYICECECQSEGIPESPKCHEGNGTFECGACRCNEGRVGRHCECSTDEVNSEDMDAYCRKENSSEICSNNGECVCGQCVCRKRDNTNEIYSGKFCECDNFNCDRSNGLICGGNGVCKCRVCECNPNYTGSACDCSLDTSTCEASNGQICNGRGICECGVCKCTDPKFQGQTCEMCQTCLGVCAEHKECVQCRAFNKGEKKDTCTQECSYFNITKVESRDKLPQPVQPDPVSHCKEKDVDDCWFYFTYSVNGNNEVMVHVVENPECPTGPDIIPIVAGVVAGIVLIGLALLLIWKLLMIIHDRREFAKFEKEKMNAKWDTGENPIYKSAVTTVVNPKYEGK

On to `COc1cccc(-c2ccc([C@H](CC(=O)O)NC(=O)Nc3c(O)ccn(C)c3=O)s2)c1` [1-563, sodium (S)-3-(5-(3-methoxyphenyl)thiophen-2-yl)-3-(3-(1-methyl-4-oxido-2-oxo-1,2-dihydropyridin-3-yl)ureido)propanoate], for which the half-inhibitory concentration (IC50) (read-out: α4β1 IC50) was below 0.02 µM.

Consider `Cc1ccc([C@H](CC(=O)O)NC(=O)Nc2c(O)ccn(C)c2=O)cc1-c1cccc(Cl)c1` [1-555, sodium (S)-3-(3′-chloro-6-methylbiphenyl-3-yl)-3-(3-(1-methyl-4-oxido-2-oxo-1,2-dihydropyridin-3-yl)ureido)propanoate], for which the 50% inhibitory concentration (IC50) (read-out: α4β1 IC50) is below 0.02 µM. Consider `Cn1ccc(O)c(NC(=O)N[C@@H](CC(=O)O)c2cc(-c3cccc(OC(F)(F)F)c3)ccc2F)c1=O` [1-594, sodium (S)-3-(4-fluoro-3′-(trifluoromethoxy)biphenyl-3-yl)-3-(3-(1-methyl-4-oxido-2-oxo-1,2-dihydropyridin-3-yl)ureido)propanoate], for which the IC50 (read-out: α4β1 IC50) was below 0.02 µM. As for `Cn1ccc(O)c(NC(=O)N[C@@H](CC(=O)O)c2cccc(-c3nccs3)c2)c1=O` [1-630, sodium (S)-3-(3-(1-methyl-4-oxido-2-oxo-1,2-dihydropyridin-3-yl)ureido)-3-(3-(thiazol-2-yl)phenyl)propanoate], where the note is “read-out: α4β1 IC50”, the IC50 was below 0.02 µM. For `Cn1ccc(O)c(NC(=O)N[C@@H](CC(=O)O)c2cc(-c3cccc(Cl)c3)cs2)c1=O` [1-530, sodium (S)-3-(4-(3-chlorophenyl)thiophen-2-yl)-3-(3-(1-methyl-4-oxido-2-oxo-1,2-dihydropyridin-3-yl)ureido)propanoate], the half-maximal inhibitory concentration (IC50) (read-out: α4β1 IC50) was below 0.02 µM. On the same count and under the same terms, the result for `Cc1cc(-c2ccc(F)cc2F)cc([C@H](CC(=O)O)NC(=O)Nc2c(O)cc(C)n(C)c2=O)c1` [1-575, sodium (S)-3-(2′,4′-difluoro-5-methylbiphenyl-3-yl)-3-(3-(1,6-dimethyl-4-oxido-2-oxo-1,2-dihydropyridin-3-yl)ureido)propanoate] reads below 0.02 µM; that for `Cc1cn(C)c(=O)c(NC(=O)N[C@@H](CC(=O)O)c2cccc(-c3c(F)cccc3F)c2)c1O` [1-464, sodium (S)-3-(2′,6′-difluorobiphenyl-3-yl)-3-(3-(1,5-dimethyl-4-oxido-2-oxo-1,2-di hydropyridin-3-yl)ureido)propanoate], below 0.02 µM.

In the case of `Cc1cc(O)c(NC(=O)N[C@@H](CC(=O)O)c2cc(-c3ccc(F)cc3F)ccc2F)c(=O)n1C` [1-592, sodium (S)-3-(3-(1,6-dimethyl-4-oxido-2-oxo-1,2-dihydropyridin-3-yl)ureido)-3-(2′,4,4′-trifluorobiphenyl-3-yl)propanoate], where the note is “read-out: α4β1 IC50”, the concentration for half-maximal inhibition (IC50) is below 0.02 µM. Same read-out and setting: the result for `Cn1ccc(O)c(NC(=O)N[C@@H](CC(=O)O)c2cccc(-c3ccccc3OC(F)(F)F)c2)c1=O` [1-512, sodium (S)-3-(3-(1-methyl-4-oxido-2-oxo-1,2-dihydropyridin-3-yl)ureido)-3-(2′-(trifluoromethoxy)biphenyl-3-yl)propanoate] reads below 0.02 µM; that for `COc1cccc(-c2cc(F)cc([C@H](CC(=O)O)NC(=O)Nc3c(O)ccn(C)c3=O)c2)c1` [1-604, sodium (S)-3-(5-fluoro-3′-methoxybiphenyl-3-yl)-3-(3-(1-methyl-4-oxido-2-oxo-1,2-dihydropyridin-3-yl)ureido)propanoate], below 0.02 µM.

`CCn1cc(C)c(O)c(NC(=O)N[C@@H](CC(=O)O)c2cccc(-c3ccccc3)c2)c1=O` [1-438, sodium (S)-3-(biphenyl-3-yl)-3-(3-(1-ethyl-5-methyl-4-oxido-2-oxo-1,2-dihydropyridin-3-yl)ureido)propanoate]: the IC50 (read-out: α4β1 IC50) was below 0.2 µM.

For the compound `Cn1ccc(O)c(NC(=O)N[C@@H](CC(=O)O)c2cccc(-c3cccc(OC(F)(F)F)c3)c2)c1=O` [1-514, sodium (S)-3-(3-(1-methyl-4-oxido-2-oxo-1,2-dihydropyridin-3-yl)ureido)-3-(3′-(trifluoromethoxy)biphenyl-3-yl)propanoate], the IC50 (read-out: α4β1 IC50) is below 0.02 µM. For the compound `Cc1cn(C)c(=O)c(NC(=O)N[C@@H](CC(=O)O)c2cccc(-c3ccccc3)c2)c1O` [1-437, sodium (S)-3-(biphenyl-3-yl)-3-(3-(1,5-dimethyl-4-oxido-2-oxo-1,2-dihydropyridin-3-yl)ureido)propanoate], under “integrin not named at the place, read-out: IC50”, the half-maximal inhibitory concentration (IC50) was below 0.02 µM. Regarding `COc1cccc(-c2cc([C@H](CC(=O)O)NC(=O)Nc3c(O)ccn(C)c3=O)ccc2OC(F)(F)F)c1` [1-634, sodium (S)-3-(3′-methoxy-6-(trifluoromethoxy)biphenyl-3-yl)-3-(3-(1-methyl-4-oxido-2-oxo-1,2-dihydropyridin-3-yl)ureido)propanoate], the IC50 (read-out: α4β1 IC50) is below 0.02 µM.

Turning to `COc1cccc(-c2cccc([C@H](CC(=O)O)NC(=O)Nc3c(O)ccn(C)c3=O)c2)c1F` [1-509, sodium (S)-3-(2′-fluoro-3′-methoxybiphenyl-3-yl)-3-(3-(1-methyl-4-oxido-2-oxo-1,2-dihydropyridin-3-yl)ureido)propanoate], the IC50 (read-out: α4β1 IC50) is below 0.02 µM. Still for that read-out and setting: for `Cc1cn(C)c(=O)c(NC(=O)NC(CC(=O)O)c2cccc(-n3cccc3)c2)c1O` (centres unmarked) [1-445, sodium 3-(3-(1H-pyrrol-1-yl)phenyl)-3-(3-(1,5-dimethyl-4-oxido-2-oxo-1,2-dihydropyridin-3-yl)ureido)propanoate] the value was below 0.2 µM; for `Cn1ccc(O)c(NC(=O)N[C@@H](CC(=O)O)c2cccc(-c3cc[nH]c3)c2)c1=O` [1-544, sodium (S)-3-(3-(1H-pyrrol-3-yl)phenyl)-3-(3-(1-methyl-4-oxido-2-oxo-1,2-dihydropyridin-3-yl)ureido)propanoate], below 0.02 µM; for `Cc1cc(O)c(NC(=O)N[C@@H](CC(=O)O)c2cccc(-c3ccc(F)cc3F)c2)c(=O)[nH]1` [1-557, sodium (S)-3-(2′,4′-difluorobiphenyl-3-yl)-3-(3-(6-methyl-4-oxido-2-oxo-1,2-dihydropyridin-3-yl)ureido)propanoate], above 0.2 µM. In the case of `COc1ccc(-c2cccc([C@H](CC(=O)O)NC(=O)Nc3c(O)c(C)cn(C)c3=O)c2)c(OC)c1` [1-468, sodium (S)-3-(2′,4′-dimethoxybiphenyl-3-yl)-3-(3-(1,5-dimethyl-4-oxido-2-oxo-1,2-dihydropyridin-3-yl)ureido)propanoate], under “read-out: α4β1 IC50”, the half-inhibitory concentration (IC50) is below 0.2 µM. For `Cc1cn(C)c(=O)c(NC(=O)NC(CC(=O)O)c2cccc(-c3cccc(Cl)c3)c2)c1O` (centres unmarked) [1-472, sodium 3-(3′-chlorobiphenyl-3-yl)-3-(3-(1,5-dimethyl-4-oxido-2-oxo-1,2-dihydropyridin-3-yl)ureido)propanoate], the IC50 (read-out: α4β1 IC50) was below 0.2 µM. Same read-out and setting: the result for `COc1cccc(-c2cccc([C@H](CC(=O)O)NC(=O)Nc3c(O)c(C)cn(C)c3=O)c2)c1` [1-460, sodium (S)-3-(3-(1,5-dimethyl-4-oxido-2-oxo-1,2-dihydropyridin-3-yl)ureido)-3-(3′-methoxybiphenyl-3-yl)propanoate] reads below 0.2 µM. `COc1cccc(-c2cc(OC)cc([C@H](CC(=O)O)NC(=O)Nc3c(O)ccn(C)c3=O)c2)c1` [1-564, sodium (S)-3-(3′,5-dimethoxybiphenyl-3-yl)-3-(3-(1-methyl-4-oxido-2-oxo-1,2-dihydropyridin-3-yl)ureido)propanoate]: under “read-out: α4β1 IC50”, the IC50 is below 0.02 µM. On the same count and under the same terms, the result for `COc1ccc(-c2cccc([C@H](CC(=O)O)NC(=O)Nc3c(O)ccn(C)c3=O)c2)nn1` [1-640, sodium (S)-3-(3-(6-methoxypyridazin-3-yl)phenyl)-3-(3-(1-methyl-4-oxido-2-oxo-1,2-dihydropyridin-3-yl)ureido)propanoate] reads below 0.02 µM.
